Results taken from patent US4542153A, “Methods for changing calcium metabolism within the cells of a mammal” (The Ohio State University Research Foundation, priority 1983, dated 1985).
“Also recorded” adds a separate entry of the source.

Key:
mice = experiment: Toxicity Tests (intraperitoneal LD50); format: in vivo; conditions: i.p., table: mean values and 95% confidence limits
[1] = system: calcium-induced arrhythmias in rats; experiment: Calcium-induced arrhythmias (CaCl2 injected i.v. into anesthetized rats)
Source text: The experimental method used was that described in Lynch J. J., Rahwan R. G., Witiak D. T.: Effects of 2-substituted-3-dimethylamino-5,6-methylenedioxyindenes on calcium-inducedarrhythmias, J. Cardiovasc. Pharmacol. 3: 49-60 (1981). Male Sprague-Dawley rats weighing 180-250 grams were anesthetized with sodium pentobarbital and a cannula was inserted into the left jugular vein for drug administration. Electrocardiograph equipment was connected to the rat and the lead II was continuously monitored. The compound under test, dissolved in 5% dextrose solution, was administered into the jugular vein of anesthetized rats over a 40 second period. Ten minutes after this treatment, an acute dose of 1 ml/kg of a 10% CaCl2.2H2 O solution was injected into the jugular vein over a period of 10 seconds. The arrhythmias resulting from the calcium administration were graded according to the following criteria: (a) initial change in heart rate following calcium administration; (b) incidences of sinoatrial block, atrioventricular block, ectopic beats, and ventricular flutter and fibrillation; (c) time required for reversion to control ECG; and (d) incidence of mortality.

isolated left atria = experiment: Effects on isolated guinea pig atria: electrically driven left atria; format: cell-based
Source text: (§1) The effects of pr-MDI, bu-MDI and Q-bu-MDI on the mechanical and electrical behavior of isolated guinea pig atria were investigated by the method of H. Nawrath, J. Pharmacol. Exp. Ther., 16, 176-182 (1980). The compounds were investigated over the concentration range of 10^-8 to 3×10^-4 M.
(§2) English short-haired guinea pigs, supplied by Carr Animal Supply, of Powell, Ohio, weighing 300-600 g. were killed by a blow on the head and both atria of the animal were quickly dissected out and suspended in a water-jacketed organ bath containing Krebs-Henseleit solution through which a 95% oxygen/5% carbon dioxide mixture was bubbled at 32° C. The solution contained 6.92 g/l of sodium chloride, 0.35 g/l of potassium chloride, 0.29 g/l of magnesium […] heptahydrate, 0.3 g/l of calcium chloride dihydrate, 0.16 g/l of potassium dihydrogen phosphate, 2.1 g/l of sodium bicarbonate and 2.1 g/l of dextrose. The contractile force generated by the isolated artria was recorded isometrically under a 500 mg. preload using a Narco Biosystems force transducer connected to a physiograph DMP-4B recorder, both the transducer and the recorder being obtained from E & M Instrument Co. of Houston, Texas.
The isolated left atria were electrically driven by square wave impulses of 3 milliseconds duration at a frequency of 3 Hz. and a voltage of twice the threshold voltage, delivered by a Grass S9 stimulator obtained from Grass Instrument Co., of Quincy, Massachusetts. Two platinum electrodes were used for the stimulation, the anode being in direct contact with the atrial tissue while the cathode had the form of a ring suspended 2.5 centimeters above the anode. Before redetermination of the threshold voltage and generation of a predrug (control) frequency-force profile over the range of 1-5 Hz., an equilibriation time of one hour was allowed. The system was then re-equilibriated at 3 Hz. and twice the threshold voltage as before, then one cumulative dose-response curve of contractile force for one test compound was obtained, followed immediately by redetermination of the threshold voltage and the generation of a post-drug frequency-force profile.
A paired Student's t-test was used to compare predrug and postdrug threshold voltages for each left atrial preparations as well as to compare developed tension at each frequency in the profile of each left atrial preparation. P values of less than 0.05 were considered statistically significant.

arrhythmia in mammals = conditions: in vivo
[2] = system: spontaneously beating right atria; experiment: Effects on isolated guinea pig atria: spontaneously beating right atria; format: cell-based
Source text: as §1, §2
Spontaneously beating right atria were tested in a similar manner.

[3] = system: thoracic aorta strips contracted with potassium chloride; experiment: Vasodilator activity: potassium chloride-contracted aortic strips; format: cell-based, male Sprague-Dawley rats; conditions: rat aorta contracted with 40 mM potassium chloride; read-out: IC50 (mean and range of SEM) KCl
Source text: Pr-MDI, bu-MDI, Q-bu-MDI and the compounds of Formulae IIIA, IIIB and IVA having the two R1 groups together forming a methylene group, each R3 a methyl group and R2 an n-propyl group or n-butyl group (the compounds of Formula III are hereinafter abbreviated as sat-pr-MDI and sat-bu-MDI respectively, reference being made where necessary to the cis isomer of Formula III A or the trans isomer of Formula III B while the compounds of Formula IV are similarly referred to as cis sat-Q-pr-MDI and cis sat-Q-bu-MDI) were tested for vasodilator activity by the method of R. F. Furchgott and S. Bhadrakom, J. P. Pharmacol. Ex. Ther., 108, 129-143 (1953).
The vasodilator activity tests were conducted on male Sprague-Dawley rats, obtained from Harlan Industries, Inc., Cumberland, Indiana. The rats, weight 250-300 g., were sacrified by cervical dislocation and a 2.5 cm. segment of the thoracic aorta was removed and rinshed in physiological buffer. Each aortic segment was cleaned of connective tissue and cut spirally two yield to strips, each 3 by 15 mm. Each strip was mounted isometrically under a tension of 1 g in a 10 ml. tissue bath thermostatically maintained at 37° C. and containing a normal physiological solution aerated with a 95% oxygen/5% carbon dioxide mixture. Forces generated by the strip were monitored using a Grass FT03 isometric transducer coupled to a Grass module 7D polygraph recorder, both the transducer and the recorder being obtained from Grass Instrument Co., of Quincy, Mass.
After the aortic tissue had been allowed to equilibriate for 1-1.5 hours in the normal physiologic solution, tissue contraction was induced by introducing either 10^-7 M norepinephrine or 40mM potassium chloride buffer to the tissue bath.
To avoid interference by loss of tension due to time dependent tissue fatigue, separate preliminary experiments were performed to determine the degree of tissue relaxation due to such fatigue and the value of the control tension generated by norepinephrine or potassium chloride prior to the addition of the test compounds was adjusted whenever the duration of the experiment was such that fatigue could be expected to cause more than a 6% loss of tension. […] All concentrations mentioned hereinafter represent the final concentration of the test compound after dilution in the tissue bath.
The figures of concentration against percent response data obtained from each aortic tissue were transformed to its appropriate probit value and IC50 values were then estimated using linear regression analysis. The normal physiological solution contained 6.9 g/l of sodium chloride, 0.35 g/l of potassium chloride, 0.11 g/l of magnesium chloride hexahydrate, 0.138 g/l of sodium dihydrogen phosphate, 2.1 g/l of sodium bicarbonate, 0.01 g/l of EDTA, 0.368 g/l of calcium chloride dihydrate and 2.0 g/l of dextrose. The high potassium buffers were obtained by substituting potassium chloride for sodium chloride on an equimolar basis to maintain tonicity.

SMILES: CCCCC1=Cc2cc3c(cc2C1[N+](C)(C)C)OCO3.[I-] (stereo not drawn) [Q-bu-MDI, 2-Butyl-5,6-methylenedioxyindene-1-trimethylammonium iodide]
- LD50 (mice): 65 mg/kg
- mortality rate ([1]; 0.5 mg/kg, i.v.): zero
- protection against arrhythmia ([1]; 0.5 mg/kg, i.v.): almost complete protection
- protection against calcium-induced mortality ([1]; 0.5 mg/kg, i.v.): complete protection against calcium-induced mortality
- protection against the calcium-induced bradycardia ([1]; 0.5 mg/kg, i.v.): partial protection
- time for reversion to a normal electrocardiogram ([1]; 0.5 mg/kg, i.v.): significantly reduced
- effectiveness in suppressing arrhythmias relative to pr-MDI and bu-MDI ([1]; calcium-induced arrhythmias): 7-8 times
- concentration effective against calcium-induced arrhythmias ([1]; i.v., 10 min before CaCl2): 0.5 mg/kg
- deleterious side effects ([1]; i.v., Q-bu-MDI at 0.5 mg/kg, pr-MDI and bu-MDI at 3.75 mg/kg): no substantial deleterious side effects
- effect on frequency-force profile/relation of the stimulated left atrium (isolated left atria; 3×10^-4 M): no significant effect
- effect on the contractile force of left atrium at the highest concentration (isolated left atria; 3×10^-4 M): partially reversed
- effect on threshold voltage required to drive the atria (isolated left atria; 3×10^-4 M): no significant effect upon the threshold voltage
- dose-dependent decrease in the contractile force of the electrically stimulated left atrium (isolated left atria; 10^-4 M, 100 µM): ≤ 20%
- effect on contractile force of the electrically stimulated left atrium (isolated left atria; 10^-8 to 3×10^-4 M): very modest; also recorded: much less than the other two compounds
- overall effect on mechanical and electrical behavior of atria (isolated left atria; 10^-8 to 3×10^-4 M): much smaller than that of bu-MDI or pr-MDI
- persistent effects on frequency-force relation and threshold voltage (isolated left atria; maximum concentration 3×10^-4 M): did not produce any persistent effects
- effectiveness relative to tertiary analog (bu-MDI), average over tests (arrhythmia in mammals): about four
- effect on the contractile force of right atria at the highest concentration ([2]; 3×10^-4 M): positive inotropy
- effect on spontaneous atrial rate ([2]; 10^-8 to 3×10^-4 M): only a slight decrease in the spontaneous atrial rate; also recorded: much less than the other two compounds
- effect on the contractile force of right atria ([2]; except at 3×10^-4 M for Q-bu-MDI): minimal effects on the contractile force of right atria
- IC50 [3]: 169 µM
